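A five-concentration, 48-hour dose response in 96-well plates underlies each endpoint, interpolated linearly between surrounding concentrations. GI50: concentration for 50% inhibition of growth.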 The source made the active and inactive calls. Cut-off read from the data, not from the text of the source: active = GI50 up to about 1.1 µM and inactive = higher.
How the values were obtained:
Assay in all cases: DTP human tumour cell line panel, 48 h
[1] = tested on: 786-0
[2] = tested on: A498
[3] = tested on: A549
[4] = tested on: ACHN
[5] = tested on: BT-549
[6] = tested on: CAKI-1
[7] = tested on: CCRF-CEM
[8] = tested on: COLO 205
[9] = tested on: DU-145
[10] = tested on: EKVX
[11] = tested on: HCC 2998
[12] = tested on: HCT-116
[13] = tested on: HCT-15
[14] = tested on: HL-60
[15] = tested on: HOP-62
[16] = tested on: HOP-92
[17] = tested on: HT-29
[18] = tested on: Hs-578T
[19] = tested on: IGROV-1
[20] = tested on: K562
[21] = tested on: KM12
[22] = tested on: LOX IMVI
[23] = tested on: M14
[24] = tested on: MCF7
[25] = tested on: MDA-MB-231
[26] = tested on: MDA-MB-435
[27] = tested on: MDA-N
[28] = tested on: MOLT-4
[29] = tested on: Malme-3M
[30] = tested on: NCI-H226
[31] = tested on: NCI-H23
[32] = tested on: NCI-H460
[33] = tested on: NCI-H522
[34] = tested on: NCI/ADR-RES
[35] = tested on: OVCAR-3
[36] = tested on: OVCAR-4
[37] = tested on: OVCAR-5
[38] = tested on: OVCAR-8
[39] = tested on: PC-3
[40] = tested on: RPMI-8226
[41] = tested on: RXF 393
[42] = tested on: SF-268
[43] = tested on: SF-295
[44] = tested on: SF-539
[45] = tested on: SK-MEL-28
[46] = tested on: SK-MEL-5
[47] = tested on: SK-OV-3
[48] = tested on: SN12C
[49] = tested on: SNB-19
[50] = tested on: SNB-75
[51] = tested on: SR
[52] = tested on: SW-620
[53] = tested on: T47D
[54] = tested on: TK-10
[55] = tested on: U-251
[56] = tested on: UACC-257
[57] = tested on: UACC-62
[58] = tested on: UO-31
[59] = tested on: SK-MEL-2

Measured: GI50

CCc1nc(Cl)nc(Cl)c1Cl
inactive: [2] 4.94 µM | [3] 2.63 µM | [5] 2.01 µM | [9] 9.06 µM | [10] 11.4 µM | [14] 1.36 µM | [15] 8.05 µM | [16] 2.11 µM | [18] 2.6 µM | [19] 3.72 µM | [21] 3.48 µM | [23] 1.28 µM | [25] 1.63 µM | [27] 1.77 µM | [30] 6.5 µM | [32] 7.98 µM | [34] 2.52 µM | [39] 1.26 µM | [41] 1.74 µM | [43] 8.57 µM | [44] 3.36 µM | [45] 4.95 µM | [46] 2.56 µM | [47] 6.41 µM | [48] 2.22 µM | [49] 3.59 µM | [50] 5.53 µM | [53] 5.55 µM | [54] 6.93 µM | [55] 1.39 µM | [57] 6.44 µM
active: [1] 0.415 µM | [4] 0.34 µM | [6] 0.193 µM | [7] 0.177 µM | [8] 0.284 µM | [11] 0.706 µM | [12] 0.948 µM | [17] 0.394 µM | [20] 0.107 µM | [22] 0.0826 µM | [24] 0.403 µM | [26] 1.06 µM | [28] 0.332 µM | [29] 0.445 µM | [31] 1.08 µM | [33] 0.0494 µM | [35] 0.535 µM | [36] 0.553 µM | [37] 0.7 µM | [38] 1.04 µM | [40] 0.0116 µM | [42] 0.54 µM | [51] 0.416 µM | [52] 0.467 µM | [56] 0.547 µM | [58] 0.276 µM
0.318 µM: [13]

Nc1nc(Cl)cc(NCC2(CO)CC(c3ccccc3)C2)n1 (configuration not stated)
inactive: [1] > 100 µM | [2] 22.8 µM | [3] 26.2 µM | [4] 16.1 µM | [5] 29.3 µM | [6] > 100 µM | [7] 27 µM | [8] 29.1 µM | [9] > 100 µM | [10] 5.41 µM | [12] 11.4 µM | [14] 17.6 µM | [15] > 100 µM | [16] 22.3 µM | [17] 30 µM | [18] 19.2 µM | [19] > 100 µM | [20] 9.57 µM | [21] 39.5 µM | [22] 7.16 µM | [23] 34.6 µM | [24] 22.9 µM | [25] 26.4 µM | [26] 29.9 µM | [27] 31 µM | [28] 19.8 µM | [29] 46.5 µM | [30] 37.7 µM | [31] 3.57 µM | [32] 43.4 µM | [33] 37.9 µM | [34] 13.8 µM | [35] > 100 µM | [36] 24.4 µM | [37] > 100 µM | [38] 34.7 µM | [39] 18 µM | [40] 17.2 µM | [41] 58.9 µM | [42] 94.4 µM | [43] > 100 µM | [44] > 100 µM | [45] 53.3 µM | [59] 62.4 µM | [46] 9.12 µM | [47] 54.2 µM | [48] 13.8 µM | [49] 88.7 µM | [50] 18.1 µM | [51] 7.59 µM | [52] > 100 µM | [53] 11.4 µM | [54] 95.1 µM | [55] 50.7 µM | [56] 20.5 µM | [57] 32.4 µM | [58] 16.6 µM
53 µM: [13]

COc1cc(OC)nc(-n2c(N)c(C(=O)O)c3ccc([N+](=O)[O-])cc3c2=O)n1
> 100 µM: [13]
inactive: [1] > 100 µM | [2] > 100 µM | [3] > 100 µM | [4] > 100 µM | [5] > 100 µM | [6] > 100 µM | [7] 63.1 µM | [8] > 100 µM | [9] > 100 µM | [10] > 100 µM | [11] > 100 µM | [12] > 100 µM | [14] 60.5 µM | [15] > 100 µM | [17] > 100 µM | [18] > 100 µM | [19] 67.8 µM | [20] > 100 µM | [21] > 100 µM | [22] > 100 µM | [23] > 100 µM | [24] > 100 µM | [25] > 100 µM | [26] > 100 µM | [27] > 100 µM | [28] > 100 µM | [29] > 100 µM | [30] > 100 µM | [31] > 100 µM | [32] > 100 µM | [33] > 100 µM | [34] > 100 µM | [35] > 100 µM | [36] > 100 µM | [37] > 100 µM | [38] > 100 µM | [39] > 100 µM | [40] > 100 µM | [41] > 100 µM | [42] > 100 µM | [43] > 100 µM | [45] 97.7 µM | [59] > 100 µM | [46] > 100 µM | [47] > 100 µM | [48] > 100 µM | [49] > 100 µM | [50] > 100 µM | [51] > 100 µM | [52] 88.1 µM | [53] > 100 µM | [55] > 100 µM | [57] > 100 µM | [58] 71.1 µM

CSc1ncc2c(n1)-c1ccccc1OC2
inactive: [1] 72.6 µM | [2] 13.3 µM | [3] 52.2 µM | [4] 45.9 µM | [5] 43 µM | [6] 19.4 µM | [7] 59.2 µM | [8] 92.3 µM | [9] 39.4 µM | [10] 34.3 µM | [12] 70.8 µM | [14] 38.9 µM | [16] 25.6 µM | [17] 40.4 µM | [18] 26.5 µM | [19] 34.4 µM | [21] > 100 µM | [22] 37.7 µM | [23] 45.4 µM | [24] 43.1 µM | [25] 16.7 µM | [26] 56.4 µM | [27] 57.1 µM | [28] 50 µM | [30] 67 µM | [31] 84.3 µM | [32] 42.9 µM | [33] 44.5 µM | [34] 71.3 µM | [35] 27.9 µM | [36] 61 µM | [37] > 100 µM | [38] 79.1 µM | [39] 56.4 µM | [40] > 100 µM | [41] 41.5 µM | [42] 49.4 µM | [43] 94.2 µM | [44] 37.7 µM | [59] > 100 µM | [46] 53.1 µM | [47] > 100 µM | [48] 39.7 µM | [49] 75.9 µM | [50] 43.6 µM | [51] 61 µM | [52] 62.2 µM | [53] 15.9 µM | [54] 45.1 µM | [55] 51.3 µM | [56] > 100 µM | [57] 78.2 µM | [58] 38.8 µM
51.2 µM: [13]

Cc1nc(N)nc2ccccc12
> 100 µM: [13]
inactive: [1] > 100 µM | [2] > 100 µM | [3] > 100 µM | [4] > 100 µM | [5] > 100 µM | [6] > 100 µM | [7] > 100 µM | [9] > 100 µM | [10] 44.8 µM | [12] > 100 µM | [14] > 100 µM | [15] > 100 µM | [16] > 100 µM | [17] > 100 µM | [18] > 100 µM | [19] > 100 µM | [20] > 100 µM | [21] > 100 µM | [22] > 100 µM | [23] > 100 µM | [24] > 100 µM | [25] > 100 µM | [26] > 100 µM | [27] > 100 µM | [28] > 100 µM | [29] > 100 µM | [31] > 100 µM | [32] > 100 µM | [33] > 100 µM | [34] > 100 µM | [35] > 100 µM | [36] > 100 µM | [37] > 100 µM | [38] > 100 µM | [39] > 100 µM | [40] > 100 µM | [41] > 100 µM | [42] > 100 µM | [43] > 100 µM | [44] > 100 µM | [45] > 100 µM | [59] > 100 µM | [46] > 100 µM | [47] > 100 µM | [48] > 100 µM | [49] > 100 µM | [50] 60 µM | [51] > 100 µM | [52] > 100 µM | [53] > 100 µM | [54] > 100 µM | [55] > 100 µM | [56] > 100 µM | [57] > 100 µM | [58] > 100 µM
active: [30] 0.172 µM

Source: ChEMBL document CHEMBL1201862, “PubChem BioAssay data set” (2004)
